Source: patent publication US10034922B2, “Peptide having angiogenesis inhibitory activity and composition containing same” (GemVax & KAEL Co., Ltd., priority 2013, dated 2018)

Key:
HSP70 = HSP70 protein level by immunoblotting, serum-free media, 2 h treatment; type: cell-based, human; conditions: MCF7 cells, PEP1 20 μM, 17-AAG 1 μM, KNK437 1 μM
Description: (§1) Jurkat and MCF7 cells ([…]) were seeded and incubated for 12 hours. After treating the starvation for 2 hours by adding the OPTI-MEM media, same as the shown figure, the cells were treated by the PEP1 at the different concentrations, by the scrambled peptides, […] (1 μM) or KNK437 (1 μM). After the 2-hour incubation, the cells were collected and lysated by using cell lysis buffer (Thermo Scientific, IL, USA). By using Bradford Protein Assay (Bio-Rad, USA), the protein concentration was quantified, and the samples were treated by SDS-PAGE and immunoblotting with α-HSP70 (sc-32239 and sc-66048, Santa Cruz, Calif., USA), α-HSP90 (ab1429, abcam, USA), α-GRP78 (sc-13968), α-HIF-1a (sc-10790) or α-GAPDH (sc-25778) antibodies. The immune reactive band was visualized by the intensive chemiluminescence kit (iNtRoN Biotechnology, INC, Korea), and analyzed by ImageQuant™ LAS-4000 (GE Healthcare Life Science, NJ, US).

HSP90 = HSP90 protein level by immunoblotting, serum-free media, 2 h treatment; type: cell-based, human; conditions: 17-AAG 1 μM, KNK437 1 μM
Description: as §1

| Compound | amount of HSP70, comparison with HSP inhibitors (HSP70) | amount of HSP90, comparison with HSP inhibitors (HSP90; Jurkat cells, PEP1 5 μM) | amount of HSP90, comparison with HSP inhibitors (HSP90; MCF7 cells, PEP1 20 μM) |
| --- | --- | --- | --- |
| C=CCNC1=C2C[C@@H](C)C[C@H](OC)[C@H](O)[C@@H](C)/C=C(\C)[C@H](OC(N)=O)[C@@H](OC)/C=C\C=C(/C)C(=O)NC(=CC1=O)C2=O [17-AAG] | very little effect | decreased | very little effect |
| O=CN1CC/C(=C\c2ccc3c(c2)OCO3)C1=O [KNK437] | decrease | decreased | decrease |
